Patent EP0059817A1, “Serpentine, alstonine and sempervirine drugs for the specific inhibition of tumurous and cancerous cells” (priority 1981, dated 1982)
Like-named read-outs stand apart in the source and are kept apart here.

Key:
lymphome YC 8 [1] = assay: lymphoma YC 8 of the mouse, alstonine and cyclophosphamide; assay type: in vivo, souris BALB C; conditions: for survie (surviving mice/total): i.p., alstonine 400 µg par jour, 8 days from day 3, mixture with 2 mg cyclophosphamide
Ascite d'Ehrlich [2] = assay: Ehrlich ascites tumour in the mouse, serpentine, alstonine, cyclophosphamide; assay type: in vivo, souris blanches Swiss; conditions: for survie (surviving mice/total): I.P., serpentine 400 µg par jour, cyclophosphamide 2 ma par jour; for definitive arrest of the Ehrlich ascites tumour (in words): each substance alone, treatment from day 4 or 5 for 10 to 15 days; for évolution de la tumeur d'Ehrlich (figure, weight of mice against days of treatment): voie intrapéritonéale, doses as above, curves 2, 3, 4
From the text: Activité vis-à-vis des tumeurs "Ascite d'Ehrlich" chez la souris - 5 x 10^3 cellules Ascite d'Ehrlich sont inoculées à des souris blanches Swiss de 20-24 g, par voie intrapéritonéale.
Divers traitements furent appliqués dès le quatrième ou le cinquième jour et pendant dix à quinze jours. […] Un net ralentissement du développement des tumeurs est observé, mais les tumeurs repartent après arrêt du traitement dans le cas du cyclophosphamide seul, le redémarrage peut être plus tardif qu'avec la serpentine ou l'alstonine. Par contre, l'association de serpentine (400 µg par jour) et de cyclophosphamide (2 ma par jour) par voie I.P. permet d'obtenir une survie définitive (survie définitive : survie normale pendant trois mois sans perte de poids) et le pourcentage des survivants varie de 80 à 100% (Tableau IV ci-après). Les souris ainsi guéries augmentent normalement de poids et après quatre à six mois celui-ci est de 24-26 g. Leur aspect est absolument normal et rien ne les distingue de souris saines. (Dans les expériences, seule la survie sans récidive est prise en considération).
La figurer, où sont portés en abscisses le nombre de jours de traitement et en ordonnées le poids (en gramme) des souris, montre l'évolution de la tumeur d'Ehrlich chez les souris traitées, soit par la serpentine seule (courbe 2), soit par le cyclophosphamide seul (courbe 3), soit par la serpentine + cyclophosphamide (courbe 4) par voie intra- péritonéale et aux doses indiquées ci-dessus. […] Aucun de ces deux traitements ne permet d'obtenir une survie.définitive. Par contre, le mélange de serpentine et de cyclophosphamide permet d'obtenir une survie définitive.

[3] = test system: Cellules primaires de reins de singe; assay: cell culture cytotoxicity, normal cells; assay type: cell-based; conditions: 200 µg/ml; en culture de 7 jours dès l'ensemencement
Method: Des cultures de cellules saines (cellules primaires de reins de singe, cellules de lignée "Vero" et "SIRC") et des cultures de cellules cancéreuses (cellules K.B., cellules Hela, cellules Hep II et cellules L)ont reçu une dose de 200 Mg, soit de serpentine, soit d'alstonine, soit de sempervirine, par ml de culture.
(§1) L'effet cytotoxique spécifique, vis-à-vis des cellules tumorales utilisées, ne s'est jamais démenti au cours des très nombreuses expériences effectuées. Par contre, pour effectuer les cellules saines il a fallu des quantités d'alcaloides au moins dix fois plus grandes (plus de 2 mg/ml). (Les cultures de cellules in-vitro sans mycoplàsmes ont été effectuées dans les conditions classiques et en l'absence d'antibiotique qui pourraient fausser les résultats).
(§2) Les cellules cancéreuses et saines utilisées ne contenaient pas de mycoplasmes et le milieu de culture ne contenait pas d'antibiotique, ces derniers pouvant sensibiliser les cellules et par conséquent fausser les résultats.

Cellules K.B. = assay: cell culture cytotoxicity, cancer cells; assay type: cell-based; conditions: 200 µg/ml; en culture de 3 jours dès l'ensemencement
Method: as §1, §2

tumeur MS 301 = assay: transplantable mammary cancer of the mouse; assay type: in vivo, souris de souche Rh0 III; conditions: 400 ^gg at the tumour implantation site, twice a day for 15 days from day 3; n=10; p : 0,01
From the text: Action sur le cancer mammaire greffable de la souris • - Vingt souris de 18 à 20g, de souche Rh0 III ont été inoculées, par voie sous-cutanée, par 0,8 " d'un extrait de tumeur MS 301, broyé. Dix souris ont été gardées comme témoins; dix autres vaient, le troisième jour après l'inoculation, 400 ^gg d'alstonine au niveau de l'implantation tumorale, deux fois par jour, pendant quinze- jours. Au seizième jour, les souris étaient anesthésiées et sacrifiées, les tumeurs excisées et pesées. • - La même expérience fut effectuée avec la serpentine au lieu d'alstonine.

virus de la grippe = assay type: in vivo, souris SWISS; conditions: for activity against influenza compared with sempervirine: doses comparables; for survie (surviving mice/total): 200 µg i.p. twice a day, 8 days
Ascite d'Ehrlich [4] = assay: Ehrlich ascites tumour in the mouse, serpentine, alstonine, cyclophosphamide; assay type: in vivo, souris blanches Swiss; conditions: voie sous-cutanée, doses as above
cellules saines = assay: cell culture cytotoxicity, healthy cells as a group; assay type: cell-based; conditions: 200 Mg par ml de culture; au bout de huit jours d'observation; reins de singe, Vero, SIRC
Method: as §1, §2

cellules cancéreuses = assay: cell culture cytotoxicity, cancer cells as a group; assay type: cell-based; conditions: 200 Mg par ml de culture; en 24 à 48 heures; K.B., Hela, Hep II, L
Method: as §1, §2

lymphome YC 8 [5] = assay: lymphoma YC 8 of the mouse, sempervirine; assay type: in vivo, souris BALB c; conditions: for survie (surviving mice/total): 10 days from day 2
From the text: 34 souris BALB c de 17-20 g sont inoculées par voie intra- péritonéale par […] ascitiques du lymphome YC 8 de la souris fraîchement prélevées et dix souris sont gardées comme témoins.
24 souris sont traitées le deuxième jour après inoculation par la sempervirine dissoute en milieu tamponné (pH 7,65) à raison de deux fois par jour par voie intrapéritonéale (300 µ g par jour) et pendant 10 jours consécutifs.
Les résultats sont présentés dans le tableau IX ci-après et illustrent la survie pendant trois mois des animaux traités. (Une survie de plusieurs jours n'est pas prise en considération).

Ascite d'Ehrlich [6] = assay: Ehrlich ascites tumour in the mouse, sempervirine; assay type: in vivo, souris BALB c; conditions: for survie (surviving mice/total): i.p. 300 µg par jour in two doses, 10 days from day 2
From the text: Les résultats sont présentés dans le tableau X ci-après et illustrent la survie des animaux pendant trois mois, une survie de plusieurs jours n'étant pas prise en considération.

virus de la vaccine = test system: virus de la vaccine; parameters: species or system lapin; conditions: in vivo
cancers du sein = assay: clinical trials in humans, breast cancer cases; assay type: in vivo, humains
From the text: Toutefois, on a pu constater au cours des essais cliniques sur l'humain que les β-carbolines quaternaires avaient une demi-vie trop courte pour être administrée sous forme galénique mais que, de façon surprenante, on obtenait d'excellents résultats dans le traitement des cancers chez les humains en utilisant une nouvelle forme galénique constituée de microgranules à libération prolongée des p-carbolines quaternaires. Ces microgranules comprennent une âme neutre constituée d'un grain excipient inerte par exemple un ou plusieurs constituants tels que le sacchorose, l'amidon, le talc, la silice désséchante, le lactose et l'acide stéarique, le grain neutre étant muni d'une première couche comprenant la β-carboline quaternaire puis d'une seconde couche extérieure constituée par une enveloppe microporeuse comprenant au moins un polymère naturel et/ou synthétique appartenant à la classe constituée par la gomme laque, la qomme arabique, la gélatine, l'éthylcellulose, l'acétophtalate d2 cellulose, le triacétate de cellulose, le polyoxyéthylèneglycol, les méthacrylates, le copolymère styrène-acrylonitrile et la polyvinylpyrrolidone.
A titre d'exemple, on a reproduit ci-après trois cas significatifs relatifs à.des cancers du sein et pour lesquels on a utilisée la serpentine préparéeselon la nouvelle forme galénique objet de l'invention décrite ci-dessus.

O=P1(N(CCCl)CCCl)NCCCO1 (centres unmarked) [cyclophosphamide]
outcome with cyclophosphamide alone (in words) (lymphome YC 8 [1]; cyclophosphamide seul): après 1-3 mois, l'amaigrissement est tel qu'elles meurent | amaigrissement of the treated mouse (Ascite d'Ehrlich [2]; cyclophosphamide seul, i.p.): amaigrissement très fort | survie (surviving mice/total) (Ascite d'Ehrlich [2]; day 0): 6/6 | survie (surviving mice/total) (Ascite d'Ehrlich [2]; day 25): 6/6 | survie (surviving mice/total) (Ascite d'Ehrlich [2]; day 35): 6/6 | survie (surviving mice/total) (Ascite d'Ehrlich [2]; day 60): 2/6 | survie (surviving mice/total) (Ascite d'Ehrlich [2]; day 120): 0/6 | definitive arrest of the Ehrlich ascites tumour (in words) (Ascite d'Ehrlich [2]): ne peuvent définitivement arrêter la tumeur ascitique d'Ehrlich | évolution de la tumeur d'Ehrlich (figure, weight of mice against days of treatment) (Ascite d'Ehrlich [2]): net ralentissement du poids des tumeurs

COC(=O)C1=CO[C@@H](C)[C@@H]2Cn3ccc4c5ccccc5nc-4c3C[C@H]12 [alstonine]
destruction des cellules [3]: Pas de destruction pendant 8 jours | destruction des cellules (Cellules K.B.): Destruction totale en 24-48 heures | POIDS MOYEN (en grammes) DES TUMEURS, AU 16è JOUR (tumeur MS 301): 1,7 (compris entre 0,8 et 2,6) grammes | survie (in words) (lymphome YC 8 [1]; alstonine seule, same doses, voie sous-cutanée): ne survivent pas plus longtemps que les souris témoins | survie (surviving mice/total) (lymphome YC 8 [1]; day 0): 10/10 | survie (surviving mice/total) (lymphome YC 8 [1]; day 22): 7/10 | survie (surviving mice/total) (lymphome YC 8 [1]; day 60): 4/10 | survie (surviving mice/total) (lymphome YC 8 [1]; day 90): 4/10 | definitive arrest of the Ehrlich ascites tumour (in words) (Ascite d'Ehrlich [2]): ne peuvent définitivement arrêter la tumeur ascitique d'Ehrlich | activity against influenza compared with sempervirine (virus de la grippe): résultats tout à fait comparables | survie and tumour evolution (in words) (Ascite d'Ehrlich [4]): sans effet sur la survie définitive des souris

c1ccc2c3ccn4cc5c(cc4c-3nc2c1)CCCC5 [sempervirine]
destruction des cellules [3]: Pas de destruction pendant 8 jours | destruction des cellules (Cellules K.B.): Destruction totale en 24-48 heures | destruction des cellules saines (cellules saines): aucune destruction des cellules saines | destruction des cellules cancéreuses (cellules cancéreuses): toutes les cellules cancéreuses étaient détruites | survie (surviving mice/total) (lymphome YC 8 [5]; day 0, i.p. 300 µg par jour in two doses): 24/24 | survie (surviving mice/total) (lymphome YC 8 [5]; day 20, i.p. 300 µ g par jour in two doses): 24/24 | survie (surviving mice/total) (lymphome YC 8 [5]; day 60, i.p. 300 µg par jour in two doses): 20/24 | survie (surviving mice/total) (lymphome YC 8 [5]; day 90, i.p. 300 µg par jour in two doses): 20/24 | state of the surviving mice (lymphome YC 8 [5]; i.p. treated survivors, kept more than three months): tout à fait normales | survie (in words) (lymphome YC 8 [5]; voie sous-cutanée): ne survivent pas très longtemps après les souris témoins | survie (surviving mice/total) (Ascite d'Ehrlich [6]; day 0): 20/20 | survie (surviving mice/total) (Ascite d'Ehrlich [6]; day 21): 15/20 | survie (surviving mice/total) (Ascite d'Ehrlich [6]; day 60): 10/20 | survie (surviving mice/total) (Ascite d'Ehrlich [6]; day 90): 10/20 | guérison définitive, proportion of mice (Ascite d'Ehrlich [6]; sempervirine seule, same results in souris blanches SWISS): ~50% | appearance of papules (virus de la vaccine): non apparition de papules ou apparition de papules dont la tailla est considérablement diminuée | lung lobes affected by the virus (congestion) (virus de la grippe; […], in controls half of the lobes affected): 0 ou 1 lobe par poumon atteint | survie (surviving mice/total) (virus de la grippe; day 0, Groupe B: treated from inoculation): 10/10 | survie (surviving mice/total) (virus de la grippe; day 0, Groupe C: treated from 24 h after inoculation): 10/10 | survie (surviving mice/total) (virus de la grippe; day 10, Groupe B: treated from inoculation): 10/10 | survie (surviving mice/total) (virus de la grippe; day 10, Groupe C: treated from 24 h after inoculation): 10/10 | survie (surviving mice/total) (virus de la grippe; day 16, Groupe B: treated from inoculation): 8/10 | survie (surviving mice/total) (virus de la grippe; day 16, Groupe C: treated from 24 h after inoculation): 6/10

COC(=O)C1=CO[C@@H](C)[C@H]2Cn3ccc4c5ccccc5nc-4c3C[C@H]12 [serpentine]
destruction des cellules [3]: Pas de destruction pendant 8 jours | destruction des cellules (Cellules K.B.): Destruction totale en 24-48 heures | destruction des cellules saines (cellules saines): aucune destruction des cellules saines | destruction des cellules cancéreuses (cellules cancéreuses): toutes les cellules cancéreuses étaient détruites | POIDS MOYEN (en grammes) DES TUMEURS, AU 16è JOUR (tumeur MS 301): 1,6 (compris entre 0,9 et 2,5) grammes | survie (surviving mice/total) (Ascite d'Ehrlich [2]; day 0): 10/10 | survie (surviving mice/total) (Ascite d'Ehrlich [2]; day 25): 10/10 | survie (surviving mice/total) (Ascite d'Ehrlich [2]; day 35): 0/10 | definitive arrest of the Ehrlich ascites tumour (in words) (Ascite d'Ehrlich [2]): ne peuvent définitivement arrêter la tumeur ascitique d'Ehrlich | évolution de la tumeur d'Ehrlich (figure, weight of mice against days of treatment) (Ascite d'Ehrlich [2]): net ralentissement du poids des tumeurs | activity against influenza compared with sempervirine (virus de la grippe): résultats tout à fait comparables | clinical outcome, case 1 (Madame M.) (cancers du sein; after one month, 100mg en microgranules par jour per os in two doses, after irradiation): régression des deux tumeurs | clinical outcome, case 3 (Madame L.) (cancers du sein; bone metastases, sustained-release microgranules, 6 months of treatment): La fracture du col du fémur se consolide ainsi que disparait la métastase calcanéenne | clinical outcome, case 1 (Madame M.) (cancers du sein; during 6 months of treatment, 100mg en microgranules par jour per os): la tumeur du sein diminue et disparait alors que le squirrhe lui-même régresse considérablement | clinical outcome, case 2 (Madame P.) (cancers du sein; three months, microgranules 100 mg par jour per os in two doses, after radiotherapy and local excision): la douleur qui persistait après l'intervention disparait progressivement et le sein prend un aspect normal et indolore | survie and tumour evolution (in words) (Ascite d'Ehrlich [4]): sans effet sur la survie définitive des souris
